From patent US20240018136A1, “CDK Inhibitors And Their Use As Pharmaceuticals” (Prelude Therapeutics, Incorporated, priority 2022, published 2024) come the findings set out here.

One test concerns the target T1, CDK4/Cyclin D1 (Homo sapiens, UniProt P11802).
T1 construct: purchased ProQinase; host or cells: insect cell
Description: CDK4/CyclinD1 enzymatic activity assay (TR-FRET). Format: biochemical. The settings on record: ATP 2 mM final, read-out: CDK4_D1 IC50. The method in brief:
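Insect-cell-expressed CDK4/Cyclin D1 (1 nM) phosphorylated ULight-4E-BP1 peptide (100 nM) at 2 mM ATP in HEPES pH 7.4 buffer after 20 min compound preincubation. Reaction started with 10 mM MgCl2, ran 45 min at 37 °C, then EDTA quench and Eu-anti-phospho-4E-BP1 TR-FRET detection. IC50 from 9-point 3-fold dilutions, 4-parameter fit.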
In general terms: Time-resolved FRET reads energy transfer from a long-lived donor to a nearby acceptor.

A further test has as its target CDK2/Cyclin E2 (Homo sapiens, UniProt P24941). Kind of test: CDK2/CyclinE2 enzymatic activity assay (TR-FRET). The settings on record: ATP 1 mM final, read-out: CDK2_E1 IC50. Format: biochemical. The gist of the method: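 Insect-cell-expressed CDK2/Cyclin E2 (1 nM), ULight-4E-BP1 (50 nM) and ATP (1 mM) in HEPES pH 7.4 buffer were preincubated 20 min at RT with compound (9-dose, 3-fold), started with 10 mM MgCl2 and run 45 min at 37 °C. EDTA/Eu-anti-P-4E-BP1 stop, 60 min TR-FRET detection; IC50 from 4-parameter Hill fit.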

Another test concerns OVCAR3 p-RB. Description: pRB ICW assay in OVCAR3 cells. The following applies: Homo sapiens, OVCAR-3, incubated with compound for 2 hours. In kind it is cell-based. The gist of the method:
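OVCAR3 cells were treated 2 h at 37 °C with a 9-point half-log compound series, in duplicate, with 10 μM reference compound as maximum inhibition. Cells were then fixed, permeabilized and stained with anti-phospho-RB plus DRAQ5. In-cell western intensities were read at 700/800 nm on Odyssey CLx.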

T1 sequence (P11802 whole entry): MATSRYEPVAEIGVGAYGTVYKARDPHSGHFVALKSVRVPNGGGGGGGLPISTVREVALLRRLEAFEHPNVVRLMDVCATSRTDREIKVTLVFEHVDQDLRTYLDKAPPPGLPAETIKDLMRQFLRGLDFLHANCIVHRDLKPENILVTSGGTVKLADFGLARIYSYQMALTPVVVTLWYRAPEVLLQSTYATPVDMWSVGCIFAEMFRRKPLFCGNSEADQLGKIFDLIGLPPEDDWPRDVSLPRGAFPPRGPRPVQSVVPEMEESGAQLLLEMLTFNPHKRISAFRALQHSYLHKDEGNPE
T1 sequence (P24385 whole entry partner): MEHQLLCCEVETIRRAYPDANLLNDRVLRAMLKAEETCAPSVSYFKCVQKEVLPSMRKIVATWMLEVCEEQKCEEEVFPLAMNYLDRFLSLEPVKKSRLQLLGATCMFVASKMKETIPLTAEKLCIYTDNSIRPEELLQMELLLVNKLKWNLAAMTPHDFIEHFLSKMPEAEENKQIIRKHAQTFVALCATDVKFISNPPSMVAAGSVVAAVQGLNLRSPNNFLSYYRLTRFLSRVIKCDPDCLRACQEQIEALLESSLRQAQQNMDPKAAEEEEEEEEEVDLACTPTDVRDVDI

Turning to `CC(C)Nc1ncc(-c2nc(NC3CCN(S(C)(=O)=O)CC3)ncc2C(F)(F)F)s1` [Example 41, 5-[2-[(1-Methylsulfonylpiperidin-4-yl)amino]-5-(trifluoromethyl)pyrimidin-4-yl]-N-propan-2-yl-1,3-thiazol-2-amine], the IC50 (as a rule, the midpoint of a concentration-inhibition curve) on CDK4/Cyclin D1 was at most 100 nM; at CDK2/Cyclin E2, at most 100 nM; with OVCAR3 p-RB, 100 to 1000 nM.

Regarding `CS(=O)(=O)N1CCC(Nc2ncc(C(F)(F)F)c(-c3cnc(C(F)F)s3)n2)CC1` [Example 42, 4-[2-(Difluoromethyl)-1,3-thiazol-5-yl]-N-(1-methylsulfonylpiperidin-4-yl)-5-(trifluoromethyl)pyrimidin-2-amine], the IC50 is 100 to 1000 nM at CDK4/Cyclin D1, at most 100 nM on CDK2/Cyclin E2 and above 1000 nM with OVCAR3 p-RB.

Take `CS(=O)(=O)N1CCC(Nc2ncc(C(F)(F)F)c(-c3cnc(O[C@@H]4CCC[C@H]4O)s3)n2)CC1` [Example 44, (1R,2R)-2-((5-(2-((1-(Methylsulfonyl)piperidin-4-yl)amino)-5-(trifluoromethyl)pyrimidin-4-yl)thiazol-2-yl)oxy)cyclopentanol]: the IC50 on CDK4/Cyclin D1 is at most 100 nM; on CDK2/Cyclin E2, at most 100 nM; in the test on OVCAR3 p-RB, 100 to 1000 nM.

As to `CCS(=O)(=O)N1CCC(Nc2ncc(C(F)(F)F)c(-c3cnc(C)s3)n2)CC1` [Example 45, N-(1-(Ethylsulfonyl)piperidin-4-yl)-4-(2-methylthiazol-5-yl)-5-(trifluoromethyl)pyrimidin-2-amine], the figures for the IC50 on CDK4/Cyclin D1, on CDK2/Cyclin E2 and in the test on OVCAR3 p-RB were 100 to 1000 nM, at most 100 nM and 100 to 1000 nM, respectively.

For `Cc1ncc(-c2nc(NC3CCN(S(=O)(=O)C4CC4)CC3)ncc2C(F)(F)F)s1` [Example 46, N-(1-(Cyclopropylsulfonyl)piperidin-4-yl)-4-(2-methylthiazol-5-yl)-5-(trifluoromethyl)pyrimidin-2-amine], the IC50 at CDK4/Cyclin D1 is 100 to 1000 nM; at CDK2/Cyclin E2, at most 100 nM; in the test on OVCAR3 p-RB, 100 to 1000 nM.

On to `Cc1ncc(-c2nc(NC3CCN(S(=O)(=O)N(C)C)CC3)ncc2C(F)(F)F)s1` [Example 47, N,N-Dimethyl-4-((4-(2-methylthiazol-5-yl)-5-(trifluoromethyl)pyrimidin-2-yl)amino)piperidine-1-sulfonamide], for which the IC50 at CDK4/Cyclin D1 was 100 to 1000 nM; at CDK2/Cyclin E2, at most 100 nM; in the test on OVCAR3 p-RB it was above 1000 nM.

`CCNS(=O)(=O)N1CCC(Nc2ncc(C(F)(F)F)c(-c3cnc(C)s3)n2)CC1` [Example 48, N-Ethyl-4-((4-(2-methylthiazol-5-yl)-5-(trifluoromethyl)pyrimidin-2-yl)amino)piperidine-1-sulfonamide]: the 50% inhibitory concentration (IC50) on CDK4/Cyclin D1 was 100 to 1000 nM; on CDK2/Cyclin E2, at most 100 nM; in the test on OVCAR3 p-RB, above 1000 nM.

In the case of `CCOc1ncc(-c2nc(NC3CCN(S(C)(=O)=O)CC3)ncc2C(F)(F)F)s1` [Example 52, 4-(2-Ethoxy-1,3-thiazol-5-yl)-N-(1-methylsulfonylpiperidin-4-yl)-5-(trifluoromethyl)pyrimidin-2-amine], the IC50 at CDK4/Cyclin D1 was at most 100 nM; at CDK2/Cyclin E2, at most 100 nM; in the test with OVCAR3 p-RB, 100 to 1000 nM.

As for `COC(=O)Nc1ncc(-c2nc(NC3CCN(S(C)(=O)=O)CC3)ncc2C(F)(F)F)s1` [Example 54, Methyl N-[5-[2-[(1-methylsulfonylpiperidin-4-yl)amino]-5-(trifluoromethyl)pyrimidin-4-yl]-1,3-thiazol-2-yl]carbamate], the concentration for half-maximal inhibition (IC50) at CDK4/Cyclin D1 is 100 to 1000 nM; at CDK2/Cyclin E2 it was at most 100 nM; in the test on OVCAR3 p-RB, above 1000 nM.

Regarding `CS(=O)(=O)N1CCC(Nc2ncc(C(F)(F)F)c(-c3cnc(NC(=O)C(F)(F)F)s3)n2)CC1` [Example 57, 2,2,2-Trifluoro-N-[5-[2-[(1-methylsulfonylpiperidin-4-yl)amino]-5-(trifluoromethyl)pyrimidin-4-yl]-1,3-thiazol-2-yl]acetamide], the IC50 at CDK4/Cyclin D1 was at most 100 nM; at CDK2/Cyclin E2 it was at most 100 nM; with OVCAR3 p-RB it was above 1000 nM.

As for `Cc1ncc(-c2nc(NC3CCN(S(=O)(=O)c4cn(C)cn4)CC3)ncc2C(F)(F)F)s1` [Example 58, N-[1-(1-Methylimidazol-4-yl)sulfonylpiperidin-4-yl]-4-(2-methyl-1,3-thiazol-5-yl)-5-(trifluoromethyl)pyrimidin-2-amine], the IC50 on CDK4/Cyclin D1 was at most 100 nM; at CDK2/Cyclin E2, at most 100 nM; with OVCAR3 p-RB it was 100 to 1000 nM.

For the compound `Cc1ncc(-c2nc(NC3CCN(S(=O)(=O)c4ccn(C)n4)CC3)ncc2C(F)(F)F)s1` [Example 59, N-[1-(1-Methylpyrazol-3-yl)sulfonylpiperidin-4-yl]-4-(2-methyl-1,3-thiazol-5-yl)-5-(trifluoromethyl)pyrimidin-2-amine], the IC50 on CDK4/Cyclin D1 is at most 100 nM; on CDK2/Cyclin E2 it was at most 100 nM; with OVCAR3 p-RB, 100 to 1000 nM.

Consider `Cc1ncc(-c2nc(NC3CCN(S(=O)(=O)c4cnn(C)c4)CC3)ncc2C(F)(F)F)s1` [Example 60, N-[1-(1-Methylpyrazol-4-yl)sulfonylpiperidin-4-yl]-4-(2-methyl-1,3-thiazol-5-yl)-5-(trifluoromethyl)pyrimidin-2-amine], for which the IC50 on CDK4/Cyclin D1 is at most 100 nM; on CDK2/Cyclin E2, at most 100 nM; with OVCAR3 p-RB, 100 to 1000 nM.

On to `Cc1ncc(-c2nc(NC3CCN(S(=O)(=O)CCO)CC3)ncc2C(F)(F)F)s1` [Example 61, 2-[4-[[4-(2-methyl-1,3-thiazol-5-yl)-5-(trifluoromethyl)pyrimidin-2-yl]amino]piperidin-1-yl]sulfonylethanol], for which the IC50 on CDK4/Cyclin D1 was at most 100 nM; on CDK2/Cyclin E2, at most 100 nM; with OVCAR3 p-RB, 100 to 1000 nM.

For `CN(C)c1ncc(-c2nc(NC3CCN(S(C)(=O)=O)CC3)ncc2C(F)F)s1` [Example 62, 5-[5-(Difluoromethyl)-2-[(1-methylsulfonylpiperidin-4-yl)amino]pyrimidin-4-yl]-N,N-dimethyl-1,3-thiazol-2-amine], the half-inhibitory concentration (IC50) on CDK4/Cyclin D1 was 100 to 1000 nM; on CDK2/Cyclin E2, 100 to 1000 nM; in the test with OVCAR3 p-RB it was above 1000 nM.

As for `CS(=O)(=O)N1CCC(Nc2ncc(C(F)(F)F)c(-c3cnc(CN)s3)n2)CC1` [Example 64, 4-[2-(Aminomethyl)-1,3-thiazol-5-yl]-N-(1-methylsulfonylpiperidin-4-yl)-5-(trifluoromethyl)pyrimidin-2-amine], the IC50 at CDK4/Cyclin D1 was 100 to 1000 nM; at CDK2/Cyclin E2, at most 100 nM; in the test on OVCAR3 p-RB it was above 1000 nM.

On to `CN(C)Cc1ncc(-c2nc(NC3CCN(S(C)(=O)=O)CC3)ncc2C(F)(F)F)s1` [Example 65, 4-[2-[(Dimethylamino)methyl]-1,3-thiazol-5-yl]-N-(1-methylsulfonylpiperidin-4-yl)-5-(trifluoromethyl)pyrimidin-2-amine], for which the IC50 at CDK4/Cyclin D1 is 100 to 1000 nM; on CDK2/Cyclin E2 it was at most 100 nM; in the test on OVCAR3 p-RB, above 1000 nM.

Consider `Cn1cc(S(=O)(=O)N2CCC(Nc3ncc(C(F)(F)F)c(-c4cnc(CC(C)(C)O)s4)n3)CC2)cn1` [Example 67, 2-Methyl-1-(5-(2-((1-((1-methyl-1H-pyrazol-4-yl)sulfonyl)piperidin-4-yl)amino)-5-(trifluoromethyl)pyrimidin-4-yl)thiazol-2-yl)propan-2-ol], for which the IC50 on CDK4/Cyclin D1, at CDK2/Cyclin E2 and in the test with OVCAR3 p-RB was at most 100 nM each time.

With `CC(C)(O)Cc1ncc(-c2nc(NC3CCN(S(C)(=O)=O)CC3)ncc2C(F)(F)F)s1` [Example 68, 2-methyl-1-(5-(2-((1-(methylsulfonyl)piperidin-4-yl)amino)-5-(trifluoromethyl)pyrimidin-4-yl)thiazol-2-yl) propan-2-ol], the IC50 at CDK4/Cyclin D1, at CDK2/Cyclin E2 and in the test on OVCAR3 p-RB was at most 100 nM each time.

In the case of `CC(C)(O)Cc1ncc(-c2nc(N[C@H]3CCN(S(C)(=O)=O)C[C@H]3F)ncc2C(F)(F)F)s1` [Example 69, 1-(5-(2-(((3R,4S)-3-fluoro-1-(methylsulfonyl)piperidin-4-yl)amino)-5-(trifluoromethyl)pyrimidin-4-yl)thiazol-2-yl)-2-methylpropan-2-ol], the IC50 on CDK4/Cyclin D1, on CDK2/Cyclin E2 and with OVCAR3 p-RB was at most 100 nM each time.

With `Cn1cnc(S(=O)(=O)N2CCC(Nc3ncc(C(F)(F)F)c(-c4cnc(CC(C)(C)O)s4)n3)CC2)c1` [Example 70, 2-methyl-1-(5-(2-((1-((1-methyl-1H-imidazol-4-yl)sulfonyl)piperidin-4-yl)amino)-5-(trifluoromethyl)pyrimidin-4-yl)thiazol-2-yl)propan-2-ol], the IC50 on CDK4/Cyclin D1, at CDK2/Cyclin E2 and in the test with OVCAR3 p-RB was at most 100 nM throughout.

`C[C@@H]1CN(S(=O)(=O)c2cnn(C)c2)CC[C@@H]1Nc1ncc(C(F)(F)F)c(-c2cnc(CC(C)(C)O)s2)n1` [Example 71, 2-methyl-1-(5-(2-(((3R,4S)-3-methyl-1-((1-methyl-1H-pyrazol-4-yl)sulfonyl)piperidin-4-yl)amino)-5-(trifluoromethyl)pyrimidin-4-yl)thiazol-2-yl)propan-2-ol]: the values for the IC50 at CDK4/Cyclin D1, at CDK2/Cyclin E2 and in the test with OVCAR3 p-RB were 100 to 1000 nM, at most 100 nM and 100 to 1000 nM, respectively.
